Source: ChEMBL document CHEMBL1127257, “Ca2+-ATPase inhibitory activity of a locked analogue of thapsigargin” (Bioorg Med Chem Lett, 1994)

Organism: Bos taurus
Test: Inhibitory effect by measuring the ATP-dependent [Ca2+] uptake in membranes isolated from bovine cerebellum
Assay type: functional

Compound | IC50 (Bos taurus, Cerebellum) [nM] | IC50 [nM]
CC=C(C)C(=O)O[C@H]1C(C)=C2[C@H]([C@@H]1OC(=O)CCCCCCC)[C@@](C)(OC(C)=O)C[C@H](OC(=O)CCC)[C@@]1(O)[C@H]2OC(=O)[C@@]1(C)O [THAPSIGARGIN] | 0.264 | –
C/C=C(/C)C(=O)O[C@H]1C(C)=C2[C@H]([C@@H]1OC(=O)CCCCCCC)[C@@](C)(OC(C)=O)C[C@H](OC(=O)CCC)[C@@]1(O)[C@H]2OC(=O)[C@@]1(C)O [THAPSIGARGIN] | – | 0.17
C/C=C(\C)C(=O)O[C@H]1C(C)=C2[C@H]([C@@H]1OC(=O)CCCCCCC)[C@@](C)(OC(C)=O)C[C@H](OC(=O)CCC)[C@@]1(O)[C@H]2OC[C@@]1(C)O | 0.18 | –
